We go through 17 compounds from ChEMBL document CHEMBL2169869, “Assay and inhibition of diacylglycerol lipase activity” (Bioorg Med Chem Lett, 2012).

SMILES strings stand for the structures. The source made the active and inactive calls. No cut-off for these calls is given here.

In assay [1] the target is T1, Monoglyceride lipase (Homo sapiens) (UniProt Q99685).
T1 sequence (whole entry): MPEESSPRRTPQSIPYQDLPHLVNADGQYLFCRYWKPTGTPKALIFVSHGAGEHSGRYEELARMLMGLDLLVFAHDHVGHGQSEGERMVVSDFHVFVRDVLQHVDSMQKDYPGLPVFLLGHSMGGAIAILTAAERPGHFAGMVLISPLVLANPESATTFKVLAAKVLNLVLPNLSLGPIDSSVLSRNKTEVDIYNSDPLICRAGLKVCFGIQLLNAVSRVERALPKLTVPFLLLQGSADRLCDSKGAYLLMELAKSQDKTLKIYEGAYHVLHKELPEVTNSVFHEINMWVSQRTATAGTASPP
Put plainly: Inhibition of human N-terminal histidine tagged full length MAGL expressed in Escherichia coli at 10 uM by coumarin ester substrate fluorescence assay.

A further assay concerns the target Cannabinoid receptor 1 (Rattus norvegicus, UniProt P20272). It counts as cell membranes, Brain.
The target in assay [2] is Cannabinoid receptor 2 (Mus musculus, UniProt P47936). The experiment in a line: Displacement of [3H]CP55940 from CB2 receptor in mouse spleen membrane. Format: cell membranes. In general terms: In a radioligand displacement assay an active substance lowers the binding of a labelled ligand.
For assay [3], the target named is T2, Fatty-acid amide hydrolase 1 (Rattus norvegicus) (UniProt P97612).
T2 sequence (whole entry): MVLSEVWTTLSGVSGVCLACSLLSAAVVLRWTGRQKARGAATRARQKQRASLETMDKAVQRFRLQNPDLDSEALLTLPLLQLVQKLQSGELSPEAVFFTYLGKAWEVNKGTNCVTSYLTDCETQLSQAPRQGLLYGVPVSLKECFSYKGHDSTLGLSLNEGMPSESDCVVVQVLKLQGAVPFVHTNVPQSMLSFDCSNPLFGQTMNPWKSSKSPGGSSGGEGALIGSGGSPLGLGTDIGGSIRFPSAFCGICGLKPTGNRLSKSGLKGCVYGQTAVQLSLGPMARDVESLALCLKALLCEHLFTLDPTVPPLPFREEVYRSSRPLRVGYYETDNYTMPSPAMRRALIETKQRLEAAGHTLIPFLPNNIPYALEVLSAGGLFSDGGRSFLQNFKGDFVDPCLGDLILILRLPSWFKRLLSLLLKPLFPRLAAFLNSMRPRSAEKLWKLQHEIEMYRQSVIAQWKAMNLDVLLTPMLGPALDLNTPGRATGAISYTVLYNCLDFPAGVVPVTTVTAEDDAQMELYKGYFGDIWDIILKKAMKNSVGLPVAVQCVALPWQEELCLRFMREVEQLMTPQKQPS
The experiment in a line: Inhibition of rat histidine tagged FAAH expressed in Escherichia coli at 10 uM by coumarin ester substrate fluorescence assay.

In assay [4] the target is Cannabinoid receptor 2 (Homo sapiens, UniProt P34972). Put plainly: Displacement of [3H]CP55940 from human CB2 receptor expressed in HEK293 cells. It counts as cell-based.
Cannabinoid receptor 2 (Homo sapiens, UniProt P34972), sequence (P34972 whole entry): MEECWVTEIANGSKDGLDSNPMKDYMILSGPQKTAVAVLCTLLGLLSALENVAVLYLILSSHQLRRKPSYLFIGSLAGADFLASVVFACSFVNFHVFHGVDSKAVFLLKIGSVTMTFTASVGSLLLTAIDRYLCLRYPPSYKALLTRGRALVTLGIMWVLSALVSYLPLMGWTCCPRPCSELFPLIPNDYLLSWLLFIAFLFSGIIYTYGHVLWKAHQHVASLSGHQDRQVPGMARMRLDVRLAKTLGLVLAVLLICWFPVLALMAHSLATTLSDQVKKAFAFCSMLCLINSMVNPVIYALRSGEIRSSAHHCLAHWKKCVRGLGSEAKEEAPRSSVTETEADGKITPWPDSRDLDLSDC

Cannabinoid receptor 1, sequence (P20272 whole entry): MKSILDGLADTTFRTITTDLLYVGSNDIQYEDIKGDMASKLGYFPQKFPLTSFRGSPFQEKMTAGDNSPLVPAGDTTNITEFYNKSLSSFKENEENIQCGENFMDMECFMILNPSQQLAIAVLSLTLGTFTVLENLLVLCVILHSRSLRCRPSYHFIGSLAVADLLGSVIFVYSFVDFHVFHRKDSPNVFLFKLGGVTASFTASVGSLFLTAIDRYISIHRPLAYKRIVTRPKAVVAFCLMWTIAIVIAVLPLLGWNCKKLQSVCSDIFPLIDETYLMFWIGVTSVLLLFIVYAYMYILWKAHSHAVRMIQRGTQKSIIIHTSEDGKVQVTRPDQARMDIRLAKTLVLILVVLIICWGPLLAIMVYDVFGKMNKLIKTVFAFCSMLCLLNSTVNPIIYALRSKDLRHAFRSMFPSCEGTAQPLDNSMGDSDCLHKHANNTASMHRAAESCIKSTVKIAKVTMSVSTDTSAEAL
Cannabinoid receptor 2 (Mus musculus, UniProt P47936), sequence (P47936 whole entry): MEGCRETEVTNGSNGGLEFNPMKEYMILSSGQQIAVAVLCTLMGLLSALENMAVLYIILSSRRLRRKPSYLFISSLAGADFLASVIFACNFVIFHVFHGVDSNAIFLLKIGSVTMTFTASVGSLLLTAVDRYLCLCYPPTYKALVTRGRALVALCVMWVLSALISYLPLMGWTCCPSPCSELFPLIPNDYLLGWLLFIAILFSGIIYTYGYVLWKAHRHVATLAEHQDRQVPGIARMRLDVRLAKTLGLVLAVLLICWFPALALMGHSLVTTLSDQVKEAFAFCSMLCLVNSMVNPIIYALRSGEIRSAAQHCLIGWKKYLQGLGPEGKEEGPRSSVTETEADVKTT
Description for Cannabinoid receptor 1: Displacement of [3H]CP55940 from CB1 receptor in rat brain synaptosome membrane

Broadly, the inhibition is the relative decrease from the control value, in per cent. By Ki is commonly meant a dissociation constant, usually derived from enzyme kinetics or from competition with a known ligand. Read a low Ki as a stronger hold on the target. `CCCCCCCCNC(=O)OCC(OC)O[Si](c1ccccc1)(c1ccccc1)C(C)(C)C` (racemic): the inhibition result in assay [1] and in assay [3] was “inactive” each time. The Ki at Cannabinoid receptor 1, at Cannabinoid receptor 2 [2] and at Cannabinoid receptor 2 [4] was above 1000 nM in each case.

With `COCC(O)CNC(=O)ON=C1CCCCC1` (racemic), the inhibition result in assay [1] and in assay [3] was “inactive” throughout. Further, the Ki on Cannabinoid receptor 2 [2] and at Cannabinoid receptor 2 [4] was above 1000 nM throughout.

As to `CCCCCCCCNC(=O)OCC(COC)OC(=O)CCCCCCC` (racemic), the inhibition result in assay [1] and in assay [3] was “inactive” each time. The Ki on Cannabinoid receptor 1, on Cannabinoid receptor 2 [2] and on Cannabinoid receptor 2 [4] was above 1000 nM in each case.

For the compound `CCCCCCCC/C=C\CCCCCCCC(=O)OC(COC)COC(=O)NCCCCCCCC` (racemic), the inhibition entry in assay [1] and in assay [3] was “inactive” throughout. The Ki at Cannabinoid receptor 1, at Cannabinoid receptor 2 [2] and at Cannabinoid receptor 2 [4] was above 1000 nM throughout.

`CCCCCCCC(=O)OCC(COC)OC(=O)CCCCCCC` (racemic): the inhibition entry in assay [1] and in assay [3] was “inactive” in each case. The Ki at Cannabinoid receptor 1, on Cannabinoid receptor 2 [2] and at Cannabinoid receptor 2 [4] was above 1000 nM each time.

With `CCCCCCCCNC(=O)OCC(COC)OC(=O)NCCCCCCCC` (racemic), the inhibition result in assay [1] and in assay [3] was “inactive” each time. For the same compound, the Ki on Cannabinoid receptor 1, on Cannabinoid receptor 2 [2] and at Cannabinoid receptor 2 [4] was above 1000 nM in each case.

Take `CCCCCCCC/C=C\CCCCCCCC(=O)OC(CNC(=O)ON=C1CCCCC1)COC` (racemic): the inhibition result in assay [1] and in assay [3] was “inactive” each time. Further, the Ki on Cannabinoid receptor 1, at Cannabinoid receptor 2 [2] and on Cannabinoid receptor 2 [4] was above 1000 nM throughout.

For the compound `CCCCCCCC/C=C\CCCCCCCC(=O)OC(CNC(=O)OCCCCCCCC)COC` (racemic), the inhibition entry in assay [1] and in assay [3] was “inactive” throughout. The Ki at Cannabinoid receptor 1, at Cannabinoid receptor 2 [2] and at Cannabinoid receptor 2 [4] was above 1000 nM in each case.

In assay [3], `CCCCCCCCCCCCCCCCS(=O)(=O)F` returned an inhibition of 100%.

Turning to `CCCCCCCCOC(=O)NCC(COC)OC(=O)CCCCCCC` (racemic), the inhibition result in assay [1] and in assay [3] was “inactive” in each case. The Ki on Cannabinoid receptor 1, on Cannabinoid receptor 2 [2] and at Cannabinoid receptor 2 [4] was above 1000 nM throughout.

Regarding `COCC(COC(=O)CCCc1ccc(-c2ccccc2)cc1)OC(=O)CCCc1ccc(-c2ccccc2)cc1` (racemic), the inhibition result in assay [1] and in assay [3] was “inactive” in each case. For the same compound, the inhibition constant Ki at Cannabinoid receptor 1, at Cannabinoid receptor 2 [2] and on Cannabinoid receptor 2 [4] was above 1000 nM each time.

As for `COCC(CNC(=O)CCCc1ccc(-c2ccccc2)cc1)OC(=O)CCCc1ccc(-c2ccccc2)cc1` (racemic), the inhibition entry in assay [1] and in assay [3] was “inactive” throughout. Besides, the Ki at Cannabinoid receptor 1, at Cannabinoid receptor 2 [2] and on Cannabinoid receptor 2 [4] was above 1000 nM in each case.

For the compound `CCCCCCCC/C=C\CCCCCCCC(=O)OC(CNC(=O)CCCCCCC)COC` (racemic), the inhibition result in assay [1] and in assay [3] was “inactive” throughout. The Ki on Cannabinoid receptor 1, on Cannabinoid receptor 2 [2] and at Cannabinoid receptor 2 [4] was above 1000 nM each time.

Consider `CCCCCCCC(=O)OC(CNC(=O)ON=C1CCCCC1)COC` (racemic), for which the inhibition entry in assay [1] and in assay [3] was “inactive” in each case. The Ki on Cannabinoid receptor 1, on Cannabinoid receptor 2 [2] and at Cannabinoid receptor 2 [4] was above 1000 nM in each case.

For the compound `CCCCCCCC(=O)NCC(COC)OC(=O)CCCCCCC` (racemic), the inhibition entry in assay [1] and in assay [3] was “inactive” in each case. In addition, the Ki on Cannabinoid receptor 1, on Cannabinoid receptor 2 [2] and at Cannabinoid receptor 2 [4] was above 1000 nM throughout.

For the compound `COCC(CNC(=O)ON=C1CCCCC1)OC(=O)CCCc1ccc(-c2ccccc2)cc1` (racemic), the inhibition result in assay [1] and in assay [3] was “inactive” throughout. Besides, the Ki on Cannabinoid receptor 1, at Cannabinoid receptor 2 [2] and on Cannabinoid receptor 2 [4] was above 1000 nM each time.

For the compound `CCCCC/C=C\C/C=C\C/C=C\C/C=C\CCCC(=O)OC(COC)COC(=O)NCCCCCCCC` (racemic), the inhibition result in assay [1] and in assay [3] was “inactive” in each case. Also, the Ki on Cannabinoid receptor 1, on Cannabinoid receptor 2 [2] and at Cannabinoid receptor 2 [4] was above 1000 nM in each case.
